Measurements from patent EP4722195A1, “PH-SENSITIVE CATIONIC LIPID AND LIPID NANOPARTICLES” (National University Corporation Hokkaido University, priority 2023, dated 2024).

Test system: proprotein convertase subtilisin/kexin type 9 (PCSK9)
Experiment: PCSK9-targeted genome editing in mice, serum PCSK9 (ELISA)
Format: in vivo, Balb/c mice
Conditions: Example 34, Fig. 13
Experimental: Specifically, an RNA solution was first prepared to contain Cas9-mRNA (TriLink, 5moU-modified) and gRNA targeting proprotein convertase subtilisin/kexin type 9 (PCSK9) (SEQ ID NO: 3) at a mass ratio of 1:2 (N/P = 6.0). Using this RNA solution, in the same manner as Example 32, lipid nanoparticles encapsulating Cas9-mRNA and PCSK9-gRNA and having a composition of TxT-5-SA14/DSPC/chol/PEG-DMG = 50/3/47/1.5 (mol%) were prepared (lipid nanoparticles for PCSK9-targeted genome editing). […]
Subsequently, the prepared lipid nanoparticles for PCSK9-targeted genome editing were administered via tail vein injection to female Balb/c mice (4 weeks old) at doses of 0.3, 1.0, and 2.0 mg RNA/kg. […] The collected blood was allowed to stand at room temperature for 1 hour, followed by centrifugation at 4°C, 1,000 × g for 10 minutes. The supernatant was collected to obtain serum. The concentration of PCSK9 in the serum was measured using a commercially available ELISA kit (Mouse/Rat PCSK9 ELISA Kit, CircuLex). Calibration samples were prepared by serial dilution from 6 ng/mL to obtain solutions of 3, 1.5, 0.75, 0.375, 0.188, and 0.094 ng/mL, each in 300 µL volumes. Serum samples were diluted 100-fold. […] Finally, 100 µL of Stop Solution (CircuLex) was added, and absorbance at 450 nm and 540 nm was measured using a spectrophotometer (Varioskan Lux, Thermo Fisher Scientific).

Compound: CCCCCCCN(CCCCCCC)C(=O)CCCC(=O)OCC(COC(=O)CCCC(=O)N(CCCCCCC)CCCCCCC)(COC(=O)CCCC(=O)N(CCCCCCC)CCCCCCC)NC(=O)CCN1CCCCC1 [TxT-5-5A14, 2-(((5-(diheptylamino)-5-oxopentanoyl)oxy)methyl)-2-(3-(piperidin-1-yl)propanamido)propane-1,3-diyl bis(5-(diheptylamino)-5-oxopentanoate)]
- PCSK9 knockout efficiency versus dose (0.3, 1.0, and 2.0 mg RNA/kg): dose-dependent increase in PCSK9 knockout efficiency
- PCSK9 knockout activity (dose of 2.0 mg RNA/kg tail vein, serum PCSK9 ten days after administration, N = 3 to 6): no less than 90%
